# Assay results published in patent US11331290B2, “Niclosamide for the treatment of cancer metastasis” (Max-Delbrück-Centrum für Molekulare Medizin in der …, priority 2011, dated 2022).
# Test system: WNT/CTNNB1 pathway (LEF/TCF transcription factor reporter)
# Test: WNT/CTNNB1 pathway activity reporter assay (TOP/FOPflash)
# Format: cell-based, human
# Conditions: 24 h
# Source text: The lymphoid enhancer-binding factor 1 (LEF)/transcription factor (TCF) activity reporter assay, also known as TOP/FOPflash assay (Promega, Madison, Wis.) was previously used to analyze the WNT/CTNNB1 pathway activity in human colon cancer cells (24). It comprises the TOPflash plasmid which contains a hexameric repetition of the LEF/TCF-binding element upstream of a thymidine kinase (TK) promoter and firefly luciferase as reporter gene. The FOPflash plasmid comprised the exact sequence of the TOPflash plasmid, but with point mutated LEF/TCF-binding sites. In the assay, 8×10^4 HCT116 cells were plated in 24-well-plates and were given 15 hours to attach to the bottom of the well. Cells were transfected with TOPflash or FOPflash plasmids using Metafecten according to the manufacturer's instruction 24 hours before they were treated with 1 μM niclosamide or the respective amount of DMSO for another 24 hours. Luciferase activity as read out for LEF/TCF activity and thus WNT/CTNNB1 pathway activity was measured by the Steady Glow™ Luciferase Assay System (Promega) according to the manufacturer's instructions in the luminescence reader SpectraFluor Plus (Tecan) with 1500 milliseconds exposure time and a gain of 150. TOPflash reporter gene expression (representing the WNT pathway activity) was normalized to FOPflash reporter gene expression (representing basal reporter gene expression and transfection efficiency). The average of three independent experiments is given here, whereas each experiment was performed in duplicate.
# For WNT pathway analysis the following cells were applied: HCT116 cells (heterozygous for gain-of-function-mutated CTNNB1; wt/mut), HAB-68mut cells (deletion mutant of HCT116, expressing only gain-of-function-mutated CTNNB1: −/mut) and HAB-92 wt cells (deletion mutant of HCT116, expressing only wild-type CTNNB1: wt/−). (A) CTNNB1 genotype dependent effect of niclosamide on LEF/TCF transcription factor reporter gene expression. Cells were treated with 1 μM niclosamide for 24 hours. Reporter gene expression was determined by luciferase activity measurement. For each condition and cell line TOPflash expression was normalized to FOPflash expression. (B) CTNNB1 genotype dependent effect of niclosamide on S100A4 expression. Cells were treated with 1 μM niclosamide for 24 hours. S100A4 expression was analyzed by qRT-PCR and immunoblot. (C) CTNNB1 genotype dependent effect of niclosamide on migration rates. Cells were treated with 1 μM niclosamide for 24 hours and cell migration was determined by Boyden chamber assay. Data represents mean±SE of at least three independent experiments. Differences were analyzed by Student's t test (n.s.; not statistically significant). (D) Nuclear localization of CTNNB1 under niclosamide treatment. Nuclear extracts of HCT116 cells treated with the indicated concentrations of niclosamide for 18 hours were analyzed by immunoblot. (E) Effect of niclosamide on CTNNB1/TCF complex. Nuclear extracts of HCT116 cells treated with the indicated concentrations of niclosamide for 18 hours were analyzed by EMSA for the TCF-binding site of the S100A4 promoter. Supershift was performed by addition of a monoclonal anti-CTNNB1 antibody. (F) Presence of CTNNB1 on the S100A4 promoter under niclosamide treatment. HCT116 cells were treated with 1 μM niclosamide for 18 hours and processed for ChIP assay. Soluble chromatin was immunoprecipitated with a monoclonal anti-CTNNB1 antibody or a nonspecific control IgG antibody. Primers used in PCR amplified a 167 bp fragment of the S100A4 promoter or 149 bp fragment of the FOS promoter. The input verified the integrity of the PCR. […] Data shown are representatives of at least two independent experiments.
structure (smiles),measurement,setting,value
"O=C(Nc1ccc([N+](=O)[O-])cc1Cl)c1cc(Cl)ccc1O [niclosamide, 2′,5-dichloro-4′-nitrosalicylanilide]","WNT pathway activity, mean difference control vs niclosamide","HAB-68mut, 1 μM",0.90
same,"WNT pathway activity (TOPflash normalized to FOPflash), mean","HAB-68mut, 1 μM, control 1.39",0.50
same,"WNT pathway activity, mean difference control vs niclosamide","HAB-92 wt, 1 μM",0.15
same,"WNT pathway activity (TOPflash normalized to FOPflash), mean","HAB-92 wt, 1 μM, control 0.36",0.21
same,"WNT pathway activity, mean difference control vs niclosamide","HCT116, 1 μM",0.61
same,"WNT pathway activity (TOPflash normalized to FOPflash), mean","HCT116, 1 μM, control 1.00",0.39
